Laboratory results reported in patent US9845322B2 (Hoffmann-La Roche Inc., priority 2016, dated 2017).
Read-outs that look alike come from different tables or passages of the source.

Legend:
[1] = tested on: HBsAg secretion in HepG2.2.15 cells; test: HBsAg assay (chemiluminescence immunoassay of secreted HBsAg in culture supernatant); assay type: cell-based, HBV; conditions: concentration at which HBsAg secretion was reduced by 50% compared to the no drug control, read-out: IC50 (HBsAg assay)
Procedure, shortened: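 IC50 taken from dose-response curves as the concentration halving secreted HBsAg relative to DMSO control. Measured by chemiluminescence immunoassay of culture supernatant from constitutively HBV-expressing HepG2.2.15 cells, seeded at 1.5×10^4/well in duplicate and exposed to three-fold serial compound dilutions at 1% final DMSO.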

[2] = tested on: HBV DNA production in HepG2.2.15 cells; test: HBV DNA assay (real-time qPCR/TaqMan of extracellular HBV DNA in cell supernatant); assay type: cell-based; conditions: Hepatitis B virus, 144 h, extracellular HBV DNA copy number, six days after initial administration, read-out: IC50 (Anti HBV DNA production activity)
Protocol: HepG2.2.15 cells (Acs et al. Proc Natl Acad Sci USA, 84, (1987), 4641-4), a constitutively HBV-expressing cell line were cultured in DMEM+Glutamax-I medium (Invitrogen, Carlsbad, Calif., USA), supplemented with 10% fetal bovine serum (Invitrogen) and G418 (Invitrogen) at a final concentration of 200 mg/L and maintained in 5% CO2 at 37° C.
The assay employs real-time qPCR (TaqMan) to directly measure extracellular HBV DNA copy number in the cell supernatant. HepG2.2.15 cells were plated in 96-well microtiter plates before treatment with complete medium (DMEM, Glutamax, 10% FBS, 1% Penicillin/Streptomycin, 250 μg/mL Genetycin, final DMSO concentration is 1%). Only the interior wells were utilized to reduce “edge effects” observed during cell culture, the exterior wells were filled with complete medium to help minimize sample evaporation. The HepG2.2.15 cells were treated 1 h later with various concentrations of a test compound in duplicate (top concentration used at 5 μM, 2 μM or 0.5 μM according to the HBsAg IC50 observed, with ⅓ successive dilutions (total of 10 dilutions). Six days following the initial administration of the test compound, the cell culture supernatant was collected; DNA extraction was performed by automated system (Magnapure) and then used in a real-time qPCR/TaqMan assay to determine HBV DNA copy numbers. Antiviral activity was calculated from the reduction in HBV DNA levels (IC50). The compounds of the present invention were tested for their capacity to inhibit HBV DNA as described herein.

[3] = Hepatitis B virus, HepG2.2.15, HepG2.2.15 cells

## CC1c2cnc(-c3ncccn3)nc2CCN1c1cc(F)c(F)c(OCCCCC(N)=O)c1 (stereo not drawn) [Example 64, 5-[2,3-difluoro-5-(5-methyl-2-pyrimidin-2-yl-7,8-dihydro-5H-pyrido[4,3-d]pyrimidin-6-yl)phenoxy]pentanamide]
[1]; [3]
  IC50: 62 nM
[2]
  IC50: 4 nM

## COc1cc(F)cc(N2CCc3nc(-c4ncccn4)ncc3C2C)c1 (single isomer, unassigned; (-)) [Example 73, (−)-6-(3-fluoro-5-methoxy-phenyl)-5-methyl-2-pyrimidin-2-yl-7,8-dihydro-5H-pyrido[4,3-d]pyrimidine]
[1]; HepG2.2.15 cells
  IC50: 18 nM
[2]
  IC50: 5 nM

## CC1c2cnc(-c3ncccn3)nc2CCN1c1cc(OCCCCCC(N)=O)cc(F)n1 (single isomer, unassigned; (-)) [Example 165, (−)-6-[[2-fluoro-6-[5-methyl-2-pyrimidin-2-yl-7,8-dihydro-5H-pyrido[4,3-d]pyrimidin-6-yl]-4-pyridyl]oxy]hexanamide]
[1]; [3]
  IC50: 13 nM
[2]
  IC50: < 1 nM

## CNc1cc(F)nc(N2CCc3nc(-c4ncccn4)ncc3C2C)c1 (single isomer, unassigned; (-)) [Example 203, (−)-2-fluoro-N-methyl-6-[5-methyl-2-pyrimidin-2-yl-7,8-dihydro-5H-pyrido[4,3-d]pyrimidin-6-yl]pyridin-4-amine]
[1]; [3]
  IC50: 6 nM
[2]
  IC50: 0.16 nM

## CC1c2cnc(-c3ncccn3)nc2CCN1c1cc(F)cc(N2CCNC(=O)C2)n1 (stereo not drawn) [Example 214, 4-[4-fluoro-6-(5-methyl-2-pyrimidin-2-yl-7,8-dihydro-5H-pyrido[4,3-d]pyrimidin-6-yl)-2-pyridyl]piperazin-2-one]
[1]; [3]
  IC50: 22 nM
[2]
  IC50: 7.2 nM

## COc1cc(N2CCc3nc(-c4ncccn4)ncc3C2C)cc(F)c1F (single isomer, unassigned; (-)) [Example 17, (−)-6-(3,4-difluoro-5-methoxy-phenyl)-5-methyl-2-pyrimidin-2-yl-7,8-dihydro-5H-pyrido[4,3-d]pyrimidine]
[1]; HepG2.2.15 cells
  IC50: 8 nM
[2]
  IC50: 2 nM

## CC1c2cnc(-c3ncccn3)nc2CCN1c1cc(F)c(F)c(OCCCCCCC(N)=O)c1 (stereo not drawn) [Example 87, 7-[2,3-difluoro-5-(5-methyl-2-pyrimidin-2-yl-7,8-dihydro-5H-pyrido[4,3-d]pyrimidin-6-yl)phenoxy]heptanamide]
[1]; [3]
  IC50: 73 nM
[2]
  IC50: 10 nM

## CC1c2cnc(-c3ncccn3)nc2CCN1c1cc(N2CCCC2)cc(F)n1 (single isomer, unassigned; (-)) [Example 200, (−)-6-(6-fluoro-4-pyrrolidin-1-yl-2-pyridyl)-5-methyl-2-pyrimidin-2-yl-7,8-dihydro-5H-pyrido[4,3-d]pyrimidine]
[1]; HepG2.2.15 cells
  IC50: 2 nM
[2]
  IC50: < 1 nM

## CC1c2cnc(-c3ncccn3)nc2CCN1c1cc(N2CCNC(=O)C2)cc(F)n1 (stereo not drawn) [Example 215, 4-[2-fluoro-6-(5-methyl-2-pyrimidin-2-yl-7,8-dihydro-5H-pyrido[4,3-d]pyrimidin-6-yl)-4-pyridyl]piperazin-2-one]
[1]; [3]
  IC50: 64 nM
[2]
  IC50: 0.81 nM

## CC1c2cnc(-c3ncccn3)nc2CCN1c1cc(N(C)C)cc(F)n1 (single isomer, unassigned; (-)) [Example 207, (−)-2-fluoro-N,N-dimethyl-6-[5-methyl-2-pyrimidin-2-yl-7,8-dihydro-5H-pyrido[4,3-d]pyrimidin-6-yl]pyridin-4-amine]
[1]; HepG2.2.15 cells
  IC50: 2 nM
[2]
  IC50: 0.34 nM

## CC1c2cnc(-c3ncccn3)nc2CCN1c1cc(F)c(F)c(OCCCCCCC(=O)O)c1 (stereo not drawn) [Example 86, 7-[2,3-difluoro-5-(5-methyl-2-pyrimidin-2-yl-7,8-dihydro-5H-pyrido[4,3-d]pyrimidin-6-yl)phenoxy]heptanoic acid]
[1]; [3]
  IC50: 100 nM
[2]
  IC50: 1 nM

## COc1cc(N2CCc3nc(-c4ncccn4)ncc3C2C)cc(Cl)c1F (single isomer, unassigned; (-)) [Example 43, (−)-6-(3-chloro-4-fluoro-5-methoxy-phenyl)-5-methyl-2-pyrimidin-2-yl-7,8-dihydro-5H-pyrido[4,3-d]pyrimidine]
[1]; HepG2.2.15 cells
  IC50: 18 nM
[2]
  IC50: 8 nM

## CC1c2cnc(-c3ncccn3)nc2CCN1c1cc(OCC(F)F)cc(F)n1 (stereo not drawn) [Example 149, 6-[4-(2,2-difluoroethoxy)-6-fluoro-2-pyridyl]-5-methyl-2-pyrimidin-2-yl-7,8-dihydro-5H-pyrido[4,3-d]pyrimidine]
[1]; [3]
  IC50: 10 nM
[2]
  IC50: 1 nM

## CC1c2cnc(-c3ncccn3)nc2CCN1c1cc(F)c(F)c(OCCCNS(=O)(=O)C2CC2)c1 (stereo not drawn) [Example 93, N-[3-[2,3-difluoro-5-(5-methyl-2-pyrimidin-2-yl-7,8-dihydro-5H-pyrido[4,3-d]pyrimidin-6-yl)phenoxy]propyl]cyclopropanesulfonamide]
[1]; [3]
  IC50: 61 nM
